Measurements as given in US20050136108A1, “Stepwise delivery of topiramate over prolonged period of time” (priority 2003, published 2005).
≈ marks a conversion by molar mass, not a printed value.

Legend:
[1] = Aqueous solubility of topiramate; type: physicochemical; details: water, 37 °C, thermodynamic from solid, range stated without source
Protocol: Aqueous solubility is determined by adding the therapeutic agent to stirred or agitated water maintained in a constant temperature bath at a temperature of 37 degrees centigrade until no more agent dissolves. The resulting solution saturated with active agent is then filtered, typically under pressure through a 0.8-micron Millipore filter, and the concentration in solution is measured by any appropriate analytical method including gravimetric, ultraviolet spectrophometry, chromatography, and the like.

[2] = Intrinsic dissolution rate in water; type: physicochemical; details: water at 37° C.
Text: Intrinsic dissolution is a method that utilizes a compressed disc of known area (a constant surface), effectively eliminating surface area and surface electrical charges as dissolution variables. The dissolution rate obtained by this method is termed the intrinsic dissolution rate and is characteristic of each solid compound in a given solvent under the fixed experimental conditions. The value is generally expressed as mg dissolved per minute per centimeters squared and is useful in predicting probable absorption problems due to dissolution rate. […] See USP General Chapter <1087> for more information.

[3] = cited from earlier work
[4] = in vivo; cited from earlier work

solubility [1]: 9.8 to 13 mg/mL (≈ 28.9 to 38.3 mM)
dissolution rate in water [2]: below 0.6 mg/min/cm2
SMILES: CC1(C)O[C@@H]2[C@@H](CO[C@@]3(COS(N)(=O)=O)OC(C)(C)O[C@@H]23)O1 [Topiramate, topiramate]
solubility in alkaline solutions containing sodium hydroxide or sodium phosphate ([3]; alkaline solutions): soluble
solubility in acetone, dimethylsulfoxide and ethanol ([3]; organic solvents): soluble
solubility of topiramate in water ([3]; water): about 9.8 mg/ml
excretion [4]: excreted largely through the urine
metabolism [4]: not extensively metabolized
pharmacokinetics (dose dependence of blood plasma concentration) [4]: linear
